Earlier results on one substance are cited in patent publication US8062633B2, “Surface sanitizer for the food industry based on three new lactic acid bacteria that have antagonistic action against Listeria monocytogenes, the microorganism that causes listeriosis in humans” (Universidad Austral de Chile, priority 2009, dated 2011).

The subject of one series is L. monocytogenes. The following applies: 48 h of incubation.
Series [1] relates to Listeria monocytogenes Scott A. Conditions: tofu stored at 10° C.

As for nisin, the “regrowth of L. monocytogenes in culture broth” value in the series on L. monocytogenes was “developed resistance and grew again after 48 h”. Further, in series [1], the “development of L. monocytogenes in tofu” value is recorded as “Listeria started to grow again from the second day onward”.
